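How tested: cells in 96-well plates exposed to compound for 48 hours at five concentrations. Abbreviation: GI50, concentration required for 50% inhibition of growth.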 Active and inactive are the calls of the source. Cut-off read from the data, not from the text of the source: active = GI50 up to about 1.1 µM and inactive = higher.
Key:
Assay in all cases: DTP human tumour cell line panel, 48 h
786-0 = tested on: 786-0
A498 = tested on: A498
A549 = tested on: A549
BT-549 = tested on: BT-549
CAKI-1 = tested on: CAKI-1
CCRF-CEM = tested on: CCRF-CEM
COLO 205 = tested on: COLO 205
DU-145 = tested on: DU-145
EKVX = tested on: EKVX
HCT-116 = tested on: HCT-116
HCT-15 = tested on: HCT-15
HL-60 = tested on: HL-60
HOP-62 = tested on: HOP-62
HOP-92 = tested on: HOP-92
HT-29 = tested on: HT-29
Hs-578T = tested on: Hs-578T
IGROV-1 = tested on: IGROV-1
K562 = tested on: K562
KM12 = tested on: KM12
LOX IMVI = tested on: LOX IMVI
M14 = tested on: M14
MCF7 = tested on: MCF7
MDA-MB-231 = tested on: MDA-MB-231
MDA-MB-435 = tested on: MDA-MB-435
MDA-N = tested on: MDA-N
MOLT-4 = tested on: MOLT-4
Malme-3M = tested on: Malme-3M
NCI-H226 = tested on: NCI-H226
NCI-H23 = tested on: NCI-H23
NCI-H460 = tested on: NCI-H460
NCI-H522 = tested on: NCI-H522
NCI/ADR-RES = tested on: NCI/ADR-RES
OVCAR-3 = tested on: OVCAR-3
OVCAR-4 = tested on: OVCAR-4
OVCAR-5 = tested on: OVCAR-5
OVCAR-8 = tested on: OVCAR-8
PC-3 = tested on: PC-3
RPMI-8226 = tested on: RPMI-8226
RXF 393 = tested on: RXF 393
SF-268 = tested on: SF-268
SF-295 = tested on: SF-295
SF-539 = tested on: SF-539
SK-MEL-28 = tested on: SK-MEL-28
SK-MEL-2 = tested on: SK-MEL-2
SK-OV-3 = tested on: SK-OV-3
SN12C = tested on: SN12C
SNB-19 = tested on: SNB-19
SNB-75 = tested on: SNB-75
SR = tested on: SR
SW-620 = tested on: SW-620
T47D = tested on: T47D
TK-10 = tested on: TK-10
U-251 = tested on: U-251
UACC-257 = tested on: UACC-257
UACC-62 = tested on: UACC-62
UO-31 = tested on: UO-31
ACHN = tested on: ACHN
HCC 2998 = tested on: HCC 2998
SK-MEL-5 = tested on: SK-MEL-5

**Q.** How did the GI50 (786-0) turn out when `Cc1ccc(S(=O)(=O)NC(=N)N(C)N=O)cc1` was run?
**A.** > 100 µM (inactive)

**Q.** And the GI50 (A498)?
**A.** 71.4 µM (inactive)

**Q.** And the GI50 (A549)?
**A.** 19.1 µM (inactive)

**Q.** And the GI50 (BT-549)?
**A.** > 100 µM (inactive)

**Q.** What about the GI50 (CAKI-1) of the same compound?
**A.** > 100 µM (inactive)

**Q.** What about the GI50 (CCRF-CEM) of the same compound?
**A.** > 100 µM (inactive)

**Q.** And the GI50 (COLO 205)?
**A.** 28.1 µM (inactive)

**Q.** What about the GI50 (DU-145) of the same compound?
**A.** > 100 µM (inactive)

**Q.** And the GI50 (EKVX)?
**A.** 85.9 µM (inactive)

**Q.** And the GI50 (HCT-116)?
**A.** > 100 µM (inactive)

**Q.** And the GI50 (HCT-15)?
**A.** > 100 µM

**Q.** And the GI50 (HL-60)?
**A.** > 100 µM (inactive)

**Q.** And the GI50 (HOP-62)?
**A.** > 100 µM (inactive)

**Q.** And the GI50 (HOP-92)?
**A.** 84.1 µM (inactive)

**Q.** What about the GI50 (HT-29) of the same compound?
**A.** > 100 µM (inactive)

**Q.** What about the GI50 (Hs-578T) of the same compound?
**A.** > 100 µM (inactive)

**Q.** What about the GI50 (IGROV-1) of the same compound?
**A.** > 100 µM (inactive)

**Q.** And the GI50 (K562)?
**A.** > 100 µM (inactive)

**Q.** And the GI50 (KM12)?
**A.** > 100 µM (inactive)

**Q.** What about the GI50 (LOX IMVI) of the same compound?
**A.** > 100 µM (inactive)

**Q.** What about the GI50 (M14) of the same compound?
**A.** > 100 µM (inactive)

**Q.** And the GI50 (MCF7)?
**A.** > 100 µM (inactive)

**Q.** What about the GI50 (MDA-MB-231) of the same compound?
**A.** > 100 µM (inactive)

**Q.** And the GI50 (MDA-MB-435)?
**A.** > 100 µM (inactive)

**Q.** What about the GI50 (MDA-N) of the same compound?
**A.** > 100 µM (inactive)

**Q.** What about the GI50 (MOLT-4) of the same compound?
**A.** > 100 µM (inactive)

**Q.** What about the GI50 (Malme-3M) of the same compound?
**A.** > 100 µM (inactive)

**Q.** And the GI50 (NCI-H226)?
**A.** > 100 µM (inactive)

**Q.** And the GI50 (NCI-H23)?
**A.** > 100 µM (inactive)

**Q.** What about the GI50 (NCI-H460) of the same compound?
**A.** 18.9 µM (inactive)

**Q.** And the GI50 (NCI-H522)?
**A.** > 100 µM (inactive)

**Q.** And the GI50 (NCI/ADR-RES)?
**A.** > 100 µM (inactive)

**Q.** What about the GI50 (OVCAR-3) of the same compound?
**A.** > 100 µM (inactive)

**Q.** What about the GI50 (OVCAR-4) of the same compound?
**A.** > 100 µM (inactive)

**Q.** And the GI50 (OVCAR-5)?
**A.** > 100 µM (inactive)

**Q.** And the GI50 (OVCAR-8)?
**A.** > 100 µM (inactive)

**Q.** And the GI50 (PC-3)?
**A.** > 100 µM (inactive)

**Q.** What about the GI50 (RPMI-8226) of the same compound?
**A.** > 100 µM (inactive)

**Q.** What about the GI50 (RXF 393) of the same compound?
**A.** > 100 µM (inactive)

**Q.** What about the GI50 (SF-268) of the same compound?
**A.** > 100 µM (inactive)

**Q.** What about the GI50 (SF-295) of the same compound?
**A.** > 100 µM (inactive)

**Q.** What about the GI50 (SF-539) of the same compound?
**A.** > 100 µM (inactive)

**Q.** And the GI50 (SK-MEL-28)?
**A.** > 100 µM (inactive)

**Q.** And the GI50 (SK-MEL-2)?
**A.** > 100 µM (inactive)

**Q.** What about the GI50 (SK-OV-3) of the same compound?
**A.** 18.5 µM (inactive)

**Q.** What about the GI50 (SN12C) of the same compound?
**A.** > 100 µM (inactive)

**Q.** What about the GI50 (SNB-19) of the same compound?
**A.** > 100 µM (inactive)

**Q.** What about the GI50 (SNB-75) of the same compound?
**A.** 38.2 µM (inactive)

**Q.** What about the GI50 (SR) of the same compound?
**A.** > 100 µM (inactive)

**Q.** And the GI50 (SW-620)?
**A.** > 100 µM (inactive)

**Q.** What about the GI50 (T47D) of the same compound?
**A.** > 100 µM (inactive)

**Q.** And the GI50 (TK-10)?
**A.** > 100 µM (inactive)

**Q.** What about the GI50 (U-251) of the same compound?
**A.** > 100 µM (inactive)

**Q.** What about the GI50 (UACC-257) of the same compound?
**A.** > 100 µM (inactive)

**Q.** And the GI50 (UACC-62)?
**A.** 26.4 µM (inactive)

**Q.** What about the GI50 (UO-31) of the same compound?
**A.** > 100 µM (inactive)

**Q.** What does the source list for `NC(=O)c1ncn2c(=O)n(CCl)nnc12`?
**A.** GI50 (786-0): 85.9 µM (inactive); GI50 (A498): > 100 µM (inactive); GI50 (A549): > 100 µM (inactive); GI50 (ACHN): 47.9 µM (inactive); GI50 (BT-549): > 100 µM (inactive); GI50 (CAKI-1): > 100 µM (inactive); GI50 (CCRF-CEM): 22.4 µM (inactive); GI50 (COLO 205): 50.2 µM (inactive); GI50 (DU-145): > 100 µM (inactive); GI50 (EKVX): > 100 µM (inactive); GI50 (HCC 2998): > 100 µM (inactive); GI50 (HCT-116): 28.2 µM (inactive); GI50 (HCT-15): 41.4 µM; GI50 (HOP-62): > 100 µM (inactive); GI50 (HOP-92): > 100 µM (inactive); GI50 (HT-29): 43.2 µM (inactive); GI50 (Hs-578T): > 100 µM (inactive); GI50 (IGROV-1): > 100 µM (inactive); GI50 (K562): 72.6 µM (inactive); GI50 (KM12): > 100 µM (inactive); GI50 (LOX IMVI): 15.8 µM (inactive); GI50 (M14): > 100 µM (inactive); GI50 (MCF7): 49.3 µM (inactive); GI50 (MDA-MB-231): > 100 µM (inactive); GI50 (MDA-MB-435): > 100 µM (inactive); GI50 (MDA-N): > 100 µM (inactive); GI50 (MOLT-4): > 100 µM (inactive); GI50 (Malme-3M): > 100 µM (inactive); GI50 (NCI-H226): > 100 µM (inactive); GI50 (NCI-H23): > 100 µM (inactive); GI50 (NCI-H460): 51.6 µM (inactive); GI50 (NCI-H522): 96.8 µM (inactive); GI50 (NCI/ADR-RES): 48.9 µM (inactive); GI50 (OVCAR-3): > 100 µM (inactive); GI50 (OVCAR-4): > 100 µM (inactive); GI50 (OVCAR-5): > 100 µM (inactive); GI50 (OVCAR-8): 97.1 µM (inactive); GI50 (PC-3): > 100 µM (inactive); GI50 (RPMI-8226): 24.3 µM (inactive); GI50 (RXF 393): > 100 µM (inactive); GI50 (SF-268): > 100 µM (inactive); GI50 (SF-295): > 100 µM (inactive); GI50 (SF-539): 72.8 µM (inactive); GI50 (SK-MEL-28): > 100 µM (inactive); GI50 (SK-MEL-2): > 100 µM (inactive); GI50 (SK-MEL-5): > 100 µM (inactive); GI50 (SK-OV-3): 83 µM (inactive); GI50 (SN12C): > 100 µM (inactive); GI50 (SNB-19): > 100 µM (inactive); GI50 (SNB-75): > 100 µM (inactive); GI50 (SR): 15.4 µM (inactive); GI50 (SW-620): 42 µM (inactive); GI50 (T47D): 94.2 µM (inactive); GI50 (TK-10): 63.1 µM (inactive); GI50 (U-251): > 100 µM (inactive); GI50 (UACC-257): > 100 µM (inactive); GI50 (UACC-62): 76 µM (inactive); GI50 (UO-31): > 100 µM (inactive)
